Here are results for 1 compound from patent US20230348487A1, “2-AMINOPYRIMIDINE COMPOUND AND PHARMACEUTICAL COMPOSITION THEREOF AND APPLICATION THEREOF” (GUANGZHOU SALUSTIER BIOSCIENCES CO., LTD., priority 2021, published 2023).

Broadly, the clearance is a measure of how efficiently the substance is removed, as volume per time. A lower clearance goes with inefficient removal. As a reminder, the Cmax is the highest concentration seen after dosing.

The nature of data set [1]: In vivo pharmacokinetic properties in rats. On the set-up: species or system SD rats. Conditions: rat. The method, then: Species: SD rats, SPF grade.
Number of rats: 3 in each group, male.
The animals in the oral administration group were fasted overnight (10-14 hours) before administration, and were fed 4 hours after administration. The animals were weighed before administration, and the dosage was calculated based on body weight. The drug was administered intravenously (iv, 5 mg/kg) or orally by gavage (po, 15 mg/kg). Blood was collected from jugular vein at 0.083 h, 0.25 h, 0.5 h, 1 h, 2 h, 4 h, 6 h, and 8 h after administration. About 0.20 mL of each sample was collected, anticoagulated with heparin sodium, placed on ice after collection, and centrifuged to separate plasma within 1 hour (centrifugation condition: 6800 g, 6 minutes, 2-8° C.). Plasma samples were stored in a −80° C. freezer until analysis. […] Pharmacokinetic parameters were calculated using Phoenix WinNonlin7.0 based on the blood drug concentration data at different time points, providing the pharmacokinetic parameters and their average values, and standard deviations.

The test system of data set [2] is human acute myeloid leukemia cell line U937. Nature of the data set: CCK-8 in vitro proliferation inhibition. The data set is classed as cell-based. Conditions: Homo sapiens, U-937, 72 hours, read-out: Inhibitory activity (IC50) on cell proliferation, U937.
Data set [3] has as its system human chronic myeloid leukemia cell line K562. The experiment in a line: CCK-8 in vitro proliferation inhibition. Type of data set: cell-based. Conditions: Homo sapiens, K562, 72 hours, read-out: Inhibitory activity (IC50) on cell proliferation, K562.

Turning to `C=CC(=O)Nc1cc(Nc2ncc(Cl)c(O[C@@H]3CO[C@H]4[C@@H]3OC[C@H]4OC)n2)ccc1N(C)CCN(C)C` [LS 6-45], the clearance in data set [1] (male, SD, plasma, iv 5 mg/kg) came out at 155 ± 2.83 mL/min/kg. The “AUC(0-∞)” value in data set [1] (iv 5 mg/kg) was 536.99 ± 9.89 ng·h/mL; in data set [1] (po 15 mg/kg), 333.50 ± 45.52 ng·h/mL. For the same compound, the Cmax in data set [1] (iv 5 mg/kg) was 911.33 ± 139.73 ng/mL; in data set [1] (po 15 mg/kg) it was 238.28 ± 13.68 ng/mL. For the same compound, the “F (oral availability)” value in data set [1] (po 15 mg/kg) was determined as 20.66 ± 2.83%; in data set [1] (po 15 mg/kg, listed as LS6-45), 20.66%. Also, the IC50 is 20.2 nM in data set [2] and 335 nM in data set [3].
